Source: ChEMBL document CHEMBL1681776, “A photoreactive probe that differentiates the binding sites of noncompetitive GABA receptor antagonists” (Bioorg Med Chem Lett, 2011)
The source made the active and inactive calls. The rule behind the calls is not given here.

How the values were obtained:
[1] = (§1) Displacement of [3H]EBOB from housefly head membrane GABA receptor by liquid scintillation counting; parameters: species or system Musca domestica
[2] = (§2) Displacement of [3H]EBOB from Wistar rat brain membrane GABA receptor by liquid scintillation counting
[3] = species on record: Rattus norvegicus; experiment: Displacement of [3H]EBOB from GABA receptor in 365 nm ultraviolet light irradiated Wistar rat brain P2 membrane by photoaffinity labeling experiment
[4] = tested on: Musca domestica; experiment: as §1
[5] = species on record: Rattus norvegicus; experiment: as §2
[6] = species on record: Rattus norvegicus; experiment: Displacement of [3H]EBOB from GABA receptor in 365 nm ultraviolet light irradiated Wistar rat brain P2 membrane by photoaffinity labeling experiment in presence of picrotoxinin measured after membrane washout
[7] = species on record: Rattus norvegicus; experiment: Displacement of [3H]EBOB from GABA receptor in Wistar rat brain P2 membrane in presence of fipronil measured after membrane washout; format: cell membranes

SMILES	IC50 [1]	IC50 [2]	Activity [3]	Activity [4]	Activity [5]	Activity [6]	Activity [7]
CC(C)(C)CCOC(=O)c1ccc(C#CCCC(=O)O)cc1	3410 nM	88 nM	–	–	–	–	–
COC(=O)CCC#Cc1ccc(C(=O)Oc2ccc(C3(C(F)(F)F)N=N3)cc2[N+](=O)[O-])cc1	240 nM	1490 nM	Active	Dose-dependent effect	Dose-dependent effect	inactive	Active
